According to patent US20240083857A1, “2-Methyl-Quinazolines” (Bayer Pharma Aktiengesellschaft, priority 2017, published 2024):
Like-named read-outs stand apart in the source and are kept apart here.

Assays:
[1] = biological target: Epidermal Growth Factor Receptor (EGFR) (Homo sapiens (Human), UniProt P00533); assay: EGFR kinase assay (TR-FRET); assay type: biochemical; settings: read-out: EGFR kinase inhibition IC50
Outline: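 Read-out is the 665/620 nm HTRF ratio, from a Tb-cryptate anti-phosphotyrosine antibody and streptavidin-XL665 bound to phosphorylated biotin-peptide substrate. The enzyme, A431-derived EGFR (~3 U/ml), was given 15 min compound pre-binding at 22° C in Hepes pH 7.0 with Mg2+/Mn2+ before reaction.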

[2] = biological target: human SOS1 (nucleotide exchange of K-Ras^G12C) (Homo sapiens, UniProt Q07889); assay: Biochemical assay 2: K-Ras^G12C activation assay by hSOS1 at high GTP concentration (HTRF); settings: high GTP; read-out: Assay 2 (KRAS-Activation by SOS high GTP) activity expressed as IC50

Sequence of Epidermal Growth Factor Receptor (EGFR) (P00533 25-1210): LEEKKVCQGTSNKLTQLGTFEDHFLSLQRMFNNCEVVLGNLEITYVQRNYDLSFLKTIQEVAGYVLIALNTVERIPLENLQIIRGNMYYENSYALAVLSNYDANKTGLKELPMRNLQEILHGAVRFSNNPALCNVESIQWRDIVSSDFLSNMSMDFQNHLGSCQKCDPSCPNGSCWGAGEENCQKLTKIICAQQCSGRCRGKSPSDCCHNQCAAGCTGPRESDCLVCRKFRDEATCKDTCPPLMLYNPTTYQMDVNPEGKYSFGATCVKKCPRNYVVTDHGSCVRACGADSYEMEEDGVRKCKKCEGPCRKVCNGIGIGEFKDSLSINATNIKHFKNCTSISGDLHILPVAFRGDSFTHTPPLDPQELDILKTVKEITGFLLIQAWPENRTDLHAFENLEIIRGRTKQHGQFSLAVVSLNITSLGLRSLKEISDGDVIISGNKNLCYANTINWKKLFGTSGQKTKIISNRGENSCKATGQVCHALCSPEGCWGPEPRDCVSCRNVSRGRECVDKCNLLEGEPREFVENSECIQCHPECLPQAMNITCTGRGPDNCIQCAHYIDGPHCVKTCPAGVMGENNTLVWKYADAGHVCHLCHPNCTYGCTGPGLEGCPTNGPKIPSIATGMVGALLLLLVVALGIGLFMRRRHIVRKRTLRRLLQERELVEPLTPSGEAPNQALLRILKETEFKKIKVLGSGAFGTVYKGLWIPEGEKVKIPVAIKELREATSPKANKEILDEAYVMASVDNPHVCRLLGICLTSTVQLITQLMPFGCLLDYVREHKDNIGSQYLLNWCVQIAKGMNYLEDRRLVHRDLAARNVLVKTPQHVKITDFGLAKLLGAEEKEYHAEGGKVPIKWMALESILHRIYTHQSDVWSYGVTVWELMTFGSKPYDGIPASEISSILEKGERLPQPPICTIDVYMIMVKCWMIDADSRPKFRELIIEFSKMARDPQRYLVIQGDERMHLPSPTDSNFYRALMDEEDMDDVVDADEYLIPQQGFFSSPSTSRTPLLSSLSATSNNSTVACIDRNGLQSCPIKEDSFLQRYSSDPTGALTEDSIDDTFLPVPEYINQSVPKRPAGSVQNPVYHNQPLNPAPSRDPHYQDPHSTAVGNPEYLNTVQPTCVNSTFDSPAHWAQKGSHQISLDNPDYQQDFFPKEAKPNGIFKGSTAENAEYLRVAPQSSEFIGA

Structure (SMILES)	IC50 ([1]; values given in μM)	IC50 [2]	IC50 ([1]; unit inferred)
COc1cc2nc(C)nc(NC(C)c3ccc(-c4ccccc4CN4CC(N(C)C)C4)s3)c2cc1OC (centres unmarked) [Example 319, N-{1-[5-(2-{[3-(dimethylamino)azetidin-1-yl]methyl}phenyl)thiophen-2-yl]ethyl}-6,7-dimethoxy-2-methylquinazolin-4-amine]	> 20 µM	0.119 µM	–
COc1cc2nc(C)nc(NC(C)c3ccc(-c4ccccc4CN4CC(F)(F)C4)s3)c2cc1OC (centres unmarked) [Example 320, N-[1-(5-{2-[(3,3-difluoroazetidin-1-yl)methyl]phenyl}thiophen-2-yl)ethyl]-6,7-dimethoxy-2-methylquinazolin-4-amine]	> 20 µM	1.3 µM	–
COc1cc2nc(C)nc(NC(C)c3ccc(-c4ccccc4CN(C)CC(F)(F)F)s3)c2cc1OC (centres unmarked) [Example 321, 6,7-di methoxy-2-methyl-N-{1-[5-(2-{[methyl(2,2,2-trifluoroethyl)amino]methyl}phenyl)thiophen-2-yl]ethyl}quinazolin-4-amine]	> 20 µM	6.24 µM	–
COc1cc2nc(C)nc(NC(C)c3ccc(-c4ccccc4CN4CC(F)C4)s3)c2cc1OC (centres unmarked) [Example 322, N-[1-(5-{2-[(3-fluoroazetidin-1-yl)methyl]phenyl}thiophen-2-yl)ethyl]-6,7-dimethoxy-2-methylquinazolin-4-amine]	> 20 µM	0.247 µM	–
COc1cc2nc(C)nc(NC(C)c3ccc(-c4ccc(Cl)cc4CN(C)C)s3)c2cc1OC (centres unmarked) [Example 323, N-[1-(5-{4-chloro-2-[(dimethylamino)methyl]phenyl}thiophen-2-yl)ethyl]-6,7-dimethoxy-2-methylquinazolin-4-amine]	> 20 µM	0.0729 µM	–
COc1cc2nc(C)nc(NC(C)c3ccc(-c4ccccc4C(C)=O)s3)c2cc1OC (centres unmarked) [Example 324, 1-[2-(5-{1-[(6,7-dimethoxy-2-methylquinazolin-4-yl)amino]ethyl}thiophen-2-yl)phenyl]ethanone]	> 20 µM	3.38 µM	–
COc1cc2nc(C)nc(NC(C)c3ccc(-c4ccccc4OCCN4CCCC4)s3)c2cc1OC (centres unmarked) [Example 325, 6,7-di methoxy-2-methyl-N-[1-(5-{2-[2-(pyrrolidin-1-yl)ethoxy]phenyl}thiophen-2-yl)ethyl]quinazolin-4-amine]	> 20 µM	0.443 µM	–
COc1cc2nc(C)nc(NC(C)c3cccc4sc(C)cc34)c2cc1OC (centres unmarked) [Example 330, 6,7-dimethoxy-2-methyl-N-[1-(2-methyl-1-benzothiophen-4-yl)ethyl]quinazolin-4-amine]	> 20 µM	0.365 µM	–
COc1cc2nc(C)nc(NC(C)c3ccnc4sccc34)c2cc1OC (centres unmarked) [Example 331, 6,7-dimethoxy-2-methyl-N-[1-(thieno[2,3-b]pyridin-4-yl)ethyl]quinazolin-4-amine]	> 20 µM	0.992 µM	–
COc1cc2nc(C)nc(NC(C)c3cncc4sccc34)c2cc1OC (centres unmarked) [Example 332, 6,7-dimethoxy-2-methyl-N-[1-(thieno[2,3-c]pyridin-4-yl)ethyl]quinazolin-4-amine]	> 20 µM	2.62 µM	–
COc1cc2nc(C)nc(NC(C)c3nccc4sccc34)c2cc1OC (centres unmarked) [Example 333, 6,7-dimethoxy-2-methyl-N-[1-(thieno[3,2-c]pyridin-4-yl)ethyl]quinazolin-4-amine]	–	6.2 µM	16.4 µM
COc1cc2nc(C)nc(N[C@H](C)c3cccc(-c4c(C)n[nH]c4C)c3)c2cc1OC [Example 334, N-{(1R)-1-[3-(3,5-dimethyl-1H-pyrazol-4-yl)phenyl]ethyl}-6,7-dimethoxy-2-methylquinazolin-4-amine]	> 20 µM	0.773 µM	–
COc1cc2nc(C)nc(N[C@H](C)c3cccc(-c4cn[nH]c4C)c3)c2cc1OC [Example 335, 6,7-dimethoxy-2-methyl-N-{(1R)-1-[3-(5-methyl-1H-pyrazol-4-yl)phenyl]ethyl}quinazolin-4-amine]	> 20 µM	0.371 µM	–
